Measurements: publication PMC2841147, “The inhaled phosphodiesterase 4 inhibitor GSK256066 reduces allergen challenge responses in asthma” (Respiratory Research, 2010)
Like-named read-outs stand apart in the source and are kept apart here.

Legend:
[1] = Plasma pharmacokinetics after inhalation (HPLC/MS/MS); type: in vivo, human; conditions: for Tlast / Tmax: median (range); for AUC(0-t): 87.5 ug
Experimental: On days 1 and 7, blood samples were collected at pre-dose, 10 min, 30 min, 45 min and 1, 2, 3, 4, 6, 8, 10, 11, 12 and 24 hrs post dose for measurement of the levels of GSK256066 in plasma. […] These pharmacokinetic analyses were performed by protein precipitation, followed by HPLC/MS/MS. The lower limit of quantification (LLOQ) for GSK256066 and GSK614917 was 5 pg/mL, with an upper limit of quantification of 2000 pg/mL
Values for the following pharmacokinetic were estimated directly from raw plasma concentration data: maximum plasma concentration (Cmax), time of maximum observed concentration (Tmax), and time of the last observable concentration (Tlast). Area under the plasma concentration-time curve from time zero to Tlast (AUC (0-t)) was estimated for subjects with at least 3 consecutive observable concentration values with the log up/linear down trapezoidal method using Winnonlin professional version 5.2 (Pharsight Corporation, Cary, NC, USA).

[2] = test system: steroid naive atopic asthmatics; experiment: Lung function (FEV1) pre-dose and 1 hr post-dose; type: in vivo, human; conditions: for FEV1: mean; for FEV1 adjusted treatment difference GSK256066 vs placebo: adjusted mean (95% confidence intervals)
Experimental: (§1) This was a two centre, double-blind, randomised, placebo controlled, cross-over study. Eligible subjects were randomised to receive GSK256066 87.5 μg or matching placebo using an Accuhaler™ once daily for 7 days - see Fig 1. The washout period was 14 - 21 days between treatment periods. Dosing was performed under supervision at the sites on Day 1 and Day 7. On days 2-6 subjects were instructed to take the study medication at the same time of day, and were required to complete a diary card to document the time that medication was taken. Heart rate, blood pressure, ECGs, FEV1 and exhaled nitric oxide (FeNO) were measured pre-dose on days 1 and 7, and at 1 hr post-dose. On day 7, an inhaled allergen challenge was subsequently performed after the 1 hour post-dose FEV1 and FeNO measurements. Methacholine challenge was then performed at 24 hours post allergen challenge. Adverse events and beta agonist use were monitored throughout the study with the aid of diary cards.
(§2) Minimum LAR was derived as the minimum FEV1 value over 4-10 hrs post allergen challenge. Minimum EAR was derived as the minimum FEV1 over 0-2 hrs post allergen challenge. Weighted mean LAR and EAR endpoints were derived by calculating the AUC over the relevant time interval using the linear trapezoidal rule and dividing by the time interval. The sample size was based on a power calculation using our previous allergen challenge data; in order to detect a 50% attenuation of the minimum LAR, with 90% power at the two-sided 5% significance level, 23 evaluable were required. Statistical analysis was performed on each of the absolute change from baseline LAR and EAR endpoints to compare GSK256066 with placebo. A mixed effects model was fitted with the factors treatment, period and Day 7 post-saline FEV1 as fixed effects and subject as a random effect. Absolute change from post-saline FEV1 data over planned relative time were obtained from a repeated measures statistical analysis, adjusting for the terms of period, treatment group, period-level post-saline baseline, subject-level post-saline baseline, planned relative time, treatment group by planned relative time interaction and period-level post-saline baseline by planned relative time interaction as fixed effects and subject as a random effect. Day 7 FEV1 data (pre-dose and 1 h post-dose) were also analysed using a mixed effects model, adjusting for the fixed effects treatment, period and Day 1 pre-dose FEV1 and the random effect subject. Statistical analysis was performed on the log2-transformed values of the provocative concentration of methacholine required to produce a 20% reduction in FEV1 (PC20) to compare GSK256066 with placebo. A mixed effects model was fitted with the factors treatment and period treated as fixed effects and subject as a random effect. FeNO change from baseline ratio at all time points were analysed following a loge-transformation to compare GSK256066 with placebo. A mixed effects model was fitted with the fixed effects period, treatment group, subject-level loge-transformed baseline, period-level loge-transformed baseline, planned relative time, treatment group by planned relative time interaction term and period-level loge-transformed baseline by planned relative time interaction term and the random effect subject.

[3] = test system: steroid naive atopic asthmatics; experiment: Exhaled nitric oxide (FeNO); type: in vivo, human; conditions: for Exhaled nitric oxide: mean
Experimental: as §1
FeNO was measured using the Ecomedics AG analyser CLD 88 at a flow of 50 ml/s. Three acceptable readings were recorded from each subject and the mean was used for analysis.
as §2, with “Statistical analysis was performed on the log2-transformed values of the provocative concentration of methacholine required to produce a 20% reduction in FEV1 (PC20) to compare GSK256066 with placebo. A mixed effects model was fitted with the factors treatment and period treated as fixed effects and subject as a random effect.” left out, “A mixed effects model was fitted with the fixed effects period, treatment group, subject-level loge-transformed baseline, period-level loge-transformed baseline, planned relative time, treatment group by planned relative time interaction term and period-level loge-transformed baseline by planned relative time interaction term and the random effect subject.” left out

[4] = test system: steroid naive atopic asthmatics; experiment: Methacholine challenge 24 hours post allergen challenge; type: in vivo, human
Experimental: as §1, with “cards. […]” for “cards.”
Minimum LAR was derived as the minimum FEV1 value over 4-10 hrs post allergen challenge. […] Day 7 FEV1 data (pre-dose and 1 h post-dose) were also analysed using a mixed effects model, adjusting for the fixed effects treatment, period and Day 1 pre-dose FEV1 and the random effect subject. […] FeNO change from baseline ratio at all time points were analysed following a loge-transformation to compare GSK256066 with placebo. […]

[5] = test system: steroid naive atopic asthmatics; experiment: Inhaled allergen challenge (EAR and LAR) after 7 days treatment; type: in vivo, human; conditions: inhaled 87.5 μg once daily for 7 days
Experimental: as §1
Bronchial challenges were performed as we have previously described using a Mefar Dosimeter (Mefar-Bologna). Allergen for skin prick tests (Soluprick SQ, Alk Abelló (UK) Ltd) was stored at 4°C; each subject was assessed for sensitivity to house dust mite, cat, grass pollen, and positive and negative controls. The allergen for inhalation was selected according to the largest skin test wheal (positive >3 mm) and clinical history. Fresh solutions of allergen were made up in 0.9% saline in doubling concentrations from 250 SQ-U/ml to 32 000 SQ-U/ml. At screening, incremental doses of allergen were inhaled until an early asthmatic response (EAR) was observed, defined as a fall in FEV1 of ≥ 20% from the post saline value, on at least one occasion, between 5 and 30 minutes after the final concentration of allergen. The late asthmatic response (LAR) was defined as a fall in FEV1 of ≥ 15% from the post saline value, on at least three occasions, two of which must be consecutive, between 4 and 10 hours after the final concentration of allergen. During the treatment periods, the total dose of allergen required to cause an EAR and LAR was administered as a single bolus dose.
Minimum LAR was derived as the minimum FEV1 value over 4-10 hrs post allergen challenge. Minimum EAR was derived as the minimum FEV1 over 0-2 hrs post allergen challenge. Weighted mean LAR and EAR endpoints were derived by calculating the AUC over the relevant time interval using the linear trapezoidal rule and dividing by the time interval. […] Day 7 FEV1 data (pre-dose and 1 h post-dose) were also analysed using a mixed effects model, adjusting for the fixed effects treatment, period and Day 1 pre-dose FEV1 and the random effect subject. […]

PDE4 = conditions: cited from earlier work
[6] = test system: steroid naive atopic asthmatics; experiment: Safety and tolerability (adverse events); type: in vivo, human; conditions: inhaled 87.5 mcg once per day for 7 days
Experimental: as §1

patients with COPD = test system: patients with COPD; set-up: method as in PMID 19213793; conditions: inhaled, after 6 weeks of treatment; cited from earlier work
[7] = set-up: method as in PMID 17192499; conditions: cited from earlier work
asthmatic subjects = test system: asthmatic subjects; set-up: method as in PMID 16083782; conditions: orally administered; cited from earlier work

In the case of `COc1cccc(Nc2c(C(N)=O)cnc3c(C)cc(S(=O)(=O)c4cccc(C(=O)N(C)C)c4)cc23)c1` [GSK256066], the “Subjects with plasma concentrations above the LLOQ” value ([1]; Day 1, LLOQ 5 pg/mL) is reported as 18 out of 22, the Cmax ([1]; Day 1, inhaled 87.5 μg, plasma, geometric mean (CV%), N = 18) is reported as 18.3 (68) Pg/mL and the Tlast ([1]; Day 1) is reported as 3.0 (0.5-6.0) h. The “Subjects with drug levels below the LLOQ after 4 hrs post dose” value ([1]; Day 1, of the 22 subjects, LLOQ 5 pg/mL) was 18 subjects, the “Subjects with drug levels below the LLOQ after 4 hrs post dose” value ([1]; Day 7, LLOQ 5 pg/mL) was 10 of the 19 and the “Subjects with levels above the LLOQ after 12 hrs” value ([1]; Day 7, LLOQ 5 pg/mL) was 1 subject. The “Subjects with plasma concentrations above the LLOQ” value ([1]; Day 7, LLOQ 5 pg/mL) was 17 out of 19, the Cmax ([1]; Day 7, inhaled 87.5 μg once daily, plasma, geometric mean (CV%), n = 17) was 17.3 (63) Pg/mL and the Tlast ([1]; Day 7) was 4.0 (1.0-24) h. For the same molecule, the Tmax ([1]; Day 7) was 1.0 (0.17-11.0) h, the “Tlast range in this study” value ([1]; days 1 and 7) was 0.5 to 24 h and the AUC(0-t) ([1]; human, plasma, inhaled or intranasal, Day 1, inhaled 87.5 μg, plasma, geometric mean (CV%), N = 18) was 0.0368 ng·h/mL. For the same molecule, the AUC(0-t) ([1]; human, plasma, inhaled or intranasal, Day 7, inhaled 87.5 μg once daily, plasma, geometric mean (CV%), n = 17) was 0.0648 ng·h/mL, the Cmax ([1]; human, plasma, inhaled or intranasal, 87.5 μg, on both days 1 and 7, inhaled, read-out: Mean Cmax) was less than 0.02 ng/mL and the Tmax ([1]; human, plasma, inhaled, 87.5 μg, Day 1, read-out: Tmax) was 1 h. For the same molecule, the FEV1 ([2]; Day 1 Pre-dose) was 3.29 (2.88 to 3.69) L, the “FEV1 adjusted treatment difference GSK256066 vs placebo” value ([2]; Day 7 1 hr post-dose) was 0.09 (-0.08 to 0.27) L and the FEV1 ([2]; Day 7 1 hr post-dose) was 3.47 (3.04 to 3.90) L. The “FEV1 adjusted treatment difference GSK256066 vs placebo” value ([2]; Day 7 Pre-dose) was 0.09 (-0.03 to 0.20) L, the FEV1 ([2]; Day 7 Pre-dose) was 3.36 (2.94 to 3.79) L and the Exhaled nitric oxide ([3]; Day 1 Pre-dose) was 39.9 (31.0 to 51.3) ppb. The “Exhaled nitric oxide adjusted treatment ratio GSK256066 vs placebo” value ([3]; Day 7 1 hr post-dose, adjusted mean (95% confidence intervals)) was 1.03 (0.88 to 1.20), the Exhaled nitric oxide ([3]; Day 7 1 hr post-dose) was 36.1 (28.1 to 46.3) ppb and the Exhaled nitric oxide ([3]; Day 7 Pre-dose) was 34.7 (26.7 to 45.0) ppb. For the same molecule, the “Methacholine PC20 doubling dose difference vs placebo, geometric mean (95% CI)” value [4] was -0.31 (-1.18 to 0.57), the “Methacholine PC20” value ([4]; after 7 days treatment, placebo 0.39) was 0.31 mg/mL and the “EAR: inhibition of the fall in weighted mean FEV1 compared to placebo” value ([5]; 0-2 hrs post allergen, p = 0.014) was 57.2%. The “LAR: attenuation of the fall in weighted mean FEV1 compared to placebo” value ([5]; 4-10 hrs post allergen, p = 0.005) was 34.3%, the “EAR: inhibition of the fall in minimum FEV1 compared to placebo” value ([5]; minimum FEV1 0-2 hrs post allergen, p = 0.014) was 40.9% and the “LAR: attenuation of the fall in minimum FEV1 compared to placebo” value ([5]; minimum FEV1 4-10 hrs post allergen, p = 0.007) was 26.2%. The “Affinity and binding mode at PDE4” value (PDE4) was “very high affinity, slow- and tight-binding inhibitor”, the “Selectivity for PDE4 over other PDEs such as 1, 2, 3, 5, 6 and 7” value (PDE4) was “highly selective” and the “Nausea and/or gastro-intestinal side effects” value [6] was “lack of nausea and/or gastro-intestinal side effects”. For the same molecule, the “Tolerability / adverse effects” value [6] was “well tolerated”.

In the case of `Cc1ccc(O)c(C(=O)N[C@H]2CC[C@@H](NC(=O)c3cc(F)cnc3Oc3ccc(F)c(F)c3)CC2)c1` [UK-500,001], the “Effect on FEV1” value (patients with COPD) is given as “no effect”.

In the case of `O=C(Nc1c(Cl)c[n+]([O-])cc1Cl)c1ccc(OC(F)F)c(OCC2CC2)c1` [roflumilast N-Oxide], the “Plasma levels of the active metabolite compared with roflumilast Cmax” value ([7]; after oral roflumilast) is listed as “even higher”.

In the case of `O=C(Nc1c(Cl)cncc1Cl)c1ccc(OC(F)F)c(OCC2CC2)c1` [roflumilast], the “Inhibition of the maximal fall in the EAR” value (asthmatic subjects) is given as 14%, the “Inhibition of the maximal fall in the LAR” value (asthmatic subjects) is given as 33% and the “Mean Cmax” value ([7]; administered orally) is given as “over 2,000 pg/ml”.
